Data published in ChEMBL document CHEMBL4130525, “gem-Dinitroalkyl Benzenes: A Novel Class of IOP-Lowering Agents for the Treatment of Ocular Hypertension” (ACS Med Chem Lett, 2017).
“And” between values parts separate entries of the source, which are not always exact repeats. Equal values may be shown once. The source made the active and inactive calls. The rule behind the calls is not given here.

Tests used:
[1] = Induction of NO release assessed as nitrite formation at 0.1 mM in phosphate buffer saline at pH 7.4 in presence of 5 mM of L-cysteine measured after 6 hrs by Griess assay; assay type: functional
[2] = Induction of NO release assessed as nitrite formation at 0.1 mM in phosphate buffer saline at pH 7.4 in absence of L-cysteine measured after 1 hr by Griess assay; assay type: functional
Oryctolagus cuniculus [3] = assay: Antiglaucoma activity in hypertonic saline-induced New Zealand albino rabbit transient ocular hypertensive model assessed as IOP lowering efficacy at 1% dose administered topically immediately after hypertonic saline injection measured at 60 mins post dose; assay type: functional
[4] = Lipophilicity, log P of the compound by shake flask method; assay type: physicochemical; details: octanol/water
Oryctolagus cuniculus [5] = assay: Antiglaucoma activity in hypertonic saline-induced New Zealand albino rabbit transient ocular hypertensive model assessed as IOP lowering efficacy at 1% dose administered topically immediately after hypertonic saline injection measured at 120 mins post dose; assay type: functional
Thoracic aorta [6] = assay: Vasodilatory activity in denuded Wistar rat thoracic aorta assessed as relaxation of L-phenylephrine-induced contractions of aortic strips; assay type: functional, tissue-based
[7] = Induction of NO release assessed as nitrite formation at 0.1 mM in phosphate buffer saline at pH 7.4 in absence of L-cysteine measured after 6 hrs by Griess assay; assay type: functional
[8] = Induction of NO release assessed as nitrite formation at 0.1 mM in phosphate buffer saline at pH 7.4 in presence of 5 mM of L-cysteine measured after 1 hr by Griess assay; assay type: functional
[9] = Induction of NO release assessed as nitrite formation at 0.1 mM in phosphate buffer saline at pH 7.4 in presence of 5 mM of L-cysteine by Griess assay; assay type: functional; details: TDE = time-dependent effect
Oryctolagus cuniculus [10] = assay: Antiglaucoma activity in hypertonic saline-induced New Zealand albino rabbit transient ocular hypertensive model assessed as IOP lowering efficacy at 1% dose administered topically immediately after hypertonic saline injection measured at 240 mins post dose; assay type: functional
Thoracic aorta [11] = assay: Vasodilatory activity in denuded Wistar rat thoracic aorta assessed as relaxation of L-phenylephrine-induced contractions of aortic strips in presence of 1 uM of soluble guanylate cyclase inhibitor ODQ; assay type: functional; parameters: scale not given: the % may be the effect or the level left
[12] = Induction of NO release assessed as nitrite formation at 0.1 mM in phosphate buffer saline at pH 7.4 in presence of 5 mM of L-cysteine measured up to 24 hrs by Griess assay; assay type: functional
[13] = Induction of NO release assessed as nitrite formation at 0.1 mM in phosphate buffer saline at pH 1.5 to 7.4 measured up to 24 hrs by Griess assay; assay type: functional
[14] = Induction of NO release assessed as nitrite formation at 0.1 mM in phosphate buffer saline at pH 7.4 in absence of L-cysteine measured up to 24 hrs by Griess assay; assay type: functional
[15] = Induction of NO release assessed as nitrite formation at 0.1 mM in HCl at pH 1.5 in absence of L-cysteine measured after 6 hrs by Griess assay; assay type: functional
[16] = Ionization constant, pKa of the compound in KCl at pH 1.8 by potentiometric titration; assay type: physicochemical
[17] = n-Octanol-water distribution coefficient, log D of the compound at pH 7.4 after 20 mins by UV-spectrphotometric based shake-flask method; assay type: physicochemical
[18] = Drug metabolism assessed as anisic acid formation after 24 hrs by HPLC analysis; assay type: physicochemical
[19] = Induction of NO release assessed as nitrite formation at 0.1 mM in HCl at pH 1.5 in absence of L-cysteine measured after 1 hr by Griess assay; assay type: functional
Oryctolagus cuniculus [20] = assay: Antiglaucoma activity in carbomer-induced New Zealand albino rabbit transient ocular hypertensive model assessed as reduction in IOP at 1% dose administered topically measured after 24 hrs; assay type: functional, organism-based
Oryctolagus cuniculus [21] = assay: Antiglaucoma activity in carbomer-induced New Zealand albino rabbit transient ocular hypertensive model assessed as reduction in IOP at 1% dose administered topically everyday for 5 days measured 1 hr post drug instillation; assay type: functional, organism-based
[22] = Rattus norvegicus, Thoracic aorta

| SMILES | Activity [1] [%] | Activity [2] | Activity (Oryctolagus cuniculus [3]) [mmHg] | logP [4] | Activity (Oryctolagus cuniculus [5]) [mmHg] | EC50 (Thoracic aorta [6]) | Activity [7] | Activity [8] [%] | Activity [9] | Activity (Oryctolagus cuniculus [10]) | Activity (Thoracic aorta [11]) [%] | further results |
| --- | --- | --- | --- | --- | --- | --- | --- | --- | --- | --- | --- | --- |
| CC(c1ccccc1)([N+](=O)[O-])[N+](=O)[O-] | 2 | inactive | -5.6 | 2.34 | -10.5 | 50 µM and 24 µM | inactive | < 0.5 | Tde | 0.3 mmHg |  |  |
| CC(c1ccc(C(F)(F)F)cc1)([N+](=O)[O-])[N+](=O)[O-] | 4.6 | inactive | -6.9 | 2.92 | -10.4 |  | inactive | 0.8 | Tde | -0.34 mmHg | 19 |  |
| COc1ccc(C(C)([N+](=O)[O-])[N+](=O)[O-])cc1 | 25.4 | 3% | -7.3 | 2.2 | -0.11 |  | 24.9% | 3.5 |  | Active | 40 | Activity [12]: Active; Activity [13]: Dose-dependent effect; Activity [14]: Active |
| COc1ccc(C([N+](=O)[O-])[N+](=O)[O-])cc1 |  |  | -10.7 |  | -1.1 |  |  |  |  | Active |  | Activity [15]: 4%; pKa [16]: 3.9; EC50 (Thoracic aorta [6]; [22]): 64 µM; logD at 20 min [17]: -1.21; Activity [13]: Dose-dependent effect; Drug metabolism [18]: Dose-dependent effect; Activity [19]: 1.3% |
| CCOC(=O)[N-]c1c[n+](N2CCOCC2)no1 [MOLSIDOMINE] |  |  | -4.6 |  | 0.12 |  |  |  |  | -0.34 mmHg |  | EC50 (Thoracic aorta [6]; [22]): 18 µM; Drug metabolism (Oryctolagus cuniculus [10]): Metabolite detected |
| Cc1ccc(C(C)([N+](=O)[O-])[N+](=O)[O-])cc1 | 1.3 | inactive | -4.9 | 2.69 | -6.7 | 4 µM and 20 µM | inactive | < 0.5 | Tde | -0.04 mmHg | 24 | Activity (Oryctolagus cuniculus [20]): Dose-dependent effect; Activity (Oryctolagus cuniculus [21]): Active |
| COCCOCCOCCOc1ccc(C(C)([N+](=O)[O-])[N+](=O)[O-])cc1 | 13.8 | 2.6% | -12.7 | 1.63 | 0.11 | 55 µM and 264 µM | 12.8% | 2.7 |  | Active |  | Activity [12]: Active; Activity [14]: Active |
